Source: patent US6531512B1, “Method of treating cancer in patients having a deficiency in p53 tumor suppressor gene” (Health Research Inc., priority 1998, dated 2003)
Entries after “also recorded” stand apart in the source; their conditions may differ. Marks after values point to notes of the source that are not given here.

Legend:
[1] = test system: SK-MEL-28 human melanoma cells; assay: Cell growth / apoptotic response of SK-MEL-28 cells (Coulter Counter, growth kinetics); type: cell-based
Experimental: MALME-3M human melanoma cells containing wt-p53 (American Tissue Type Culture Collection, Bethesda, Md.) and human SK-MEL-28 cells containing mt-p53 (American Tissue Type Culture Collection, Bethesda, Md.) were cultured as a monolayer in RPMI 1640 medium containing 10% Nu-Serum (Collaborative Research Products, Bedford, Mass.), 1 mM aminoguanidine, penicillin (50 units/ml) and streptomycin (50 μg/ml) as described by Kramer et al, J. Biol. Chem., 270:2124-32 (1995) and Kramer et al., Cancer Res., 57:5521-5527 (1997).
MALME-3M cells were cultured as described in Example 1. The cells were seeded by adding 1×10^5 cells to a T-25 vented cell culture flask. After 24 hours, the asynchronous cell cultures were treated with 10 μM N^1, N^11-diethylnorspermine (DENSPM) prepared by dissolving DENSPM in distilled water and sterilizing the solution by filtration through a 0.22 micron Millipore membrane. The cells were treated by continuous exposure to DENSPM for 6 days (i.e., the polyamine was added to the cell culture at T=0 and the culture was incubated for the desired amount of time). The number of viable MALME-3M cells were monitored electronically using a Model ZM Coulter Counter (Coulter Electronics, Hialeah, Fla.). Untreated MALME-3M cell cultures were used as controls.
(§1) MALME-3M human melanoma cells were cultured as described in Example 1 and treated continuously with 10 μM DENSPM or 10 μM spermine (SPM) for 48 hours. SK-MEL-28 cells were also cultured as described in Example 1 and treated with 10 μM DENSPM for 24 hours. Untreated cells were used as a control.
The effect of DENSPM and spermine on cell growth was monitored using a Coulter Counter (see Example 2). The effect on cell cycle was monitored by flow cytometry as described in Example 3. […]

[2] = test system: MALME-3M human melanoma cells; assay: Cell cycle distribution of MALME-3M cells by flow cytometry; type: cell-based
Experimental: (§2) MALME-3M cells were cultured as described in Example 1 and treated with 10 μM DENSPM as described in Example 2. Cell cycle arrest was monitored using a FACScan flow cytometry unit (Becton Dickinson, San Jose, Calif.) according to the method of Krishan (1975) J. Cell Biol. 66:[…]. Untreated MALME-3M cell cultures were used as controls.
Cell cycle arrest of serum synchronized MALME-3M cells was also monitored using flow cytometry. MALME-3M cells were synchronized in G0/G1 by replacing cell culture media containing 10% NuSerum (see Example 1) with media lacking NuSerum and incubating the cultures for 120 hours. The synchronized cells were released by the addition of 10% NuSerum (control culture) or 10% NuSerum plus 10 μM DENSPM. The cells were then grown continuously in the presence of serum (control) or DENSPM for up to 96 hours. The untreated cells (control) re-established an asynchronous profile (i.e., progressed through the cell cycle) by 60 hours.
(§3) The effect of DENSPM and spermine on cell growth was monitored using a Coulter Counter (see Example 2). The effect on cell cycle was monitored by flow cytometry as described in Example 3.

[3] = test system: SK-MEL-28 human melanoma cells; assay: Cell cycle distribution of SK-MEL-28 cells by flow cytometry; type: cell-based; conditions: SK-MEL-28 (mt-p53), attached cells, 10 μM, 24 hours treatment (footnote)
Experimental: as §2, §1, §3

[4] = test system: ornithine decarboxylate (ODC); assay: Polyamine enzyme activity in treated melanoma cells: ODC; type: cell-based, human; conditions: for ODC activity: 10 μM
Experimental: as §1, with “treated” for “treated continuously”, “as described in Example 4.” for “for 48 hours.”, “as describe in Example 4.” for “for 24 hours.”
(§4) After treatment with DENSPM or spermine, biochemical parameters including polyamine enzymes activity, polyamine pools and analog accumulation were monitored as described by Kramer et al, J. Biol. Chem., 270:2124-32 (1995) and Kramer et al., Cancer Res., 57:5521-5527 (1997). Polyamine enzyme activity was monitored for ornithine […] (ODC); S-adenosylmethionine decarboxylase (SAMDC); and spermidine/spermine N^1-acetyltransferase (SSAT). Polyamine pools was monitored for putrescine (Put); spermidine (Spd); and spermine (Spm).
Enzyme activity and polyamine pools were measured as described in Example 5.

[5] = test system: S-adenosylmethionine decarboxylase (SAMDC); assay: Polyamine enzyme activity in treated melanoma cells: SAMDC; type: cell-based, human; conditions: 10 μM
Experimental: as §1, with “treated” for “treated continuously”, “as described in Example 4.” for “for 48 hours.”, “as describe in Example 4.” for “for 24 hours.”
as §4

[6] = test system: MALME-3M human melanoma cells; assay: Polyamine pools in MALME-3M cells; type: cell-based; conditions: MALME-3M (wt-p53), 10 μM, Table 2 (24 hours treatment)
Experimental: as §1, with “treated” for “treated continuously”, “as described in Example 4.” for “for 48 hours.”, “as describe in Example 4.” for “for 24 hours.”
as §4

[7] = test system: cell cycle regulatory proteins, including p53, p21, p27, ppRb, pRb, cyclin D1 and PCNA; assay: Western blot of cell cycle regulatory proteins in MALME-3M cells; type: cell-based, human; conditions: 10 μM
Experimental: MALME-3M and SK-MEL-28 cells cultured as described in Example 4 were treated with 10 μM DENSPM for 0 to 48 hours. Western blot analysis of cell cycle regulatory proteins, including p53, p21, p27, ppRb, pRb, cyclin D1 and PCNA was performed following the procedure described by Fogel-Petrovic et al. in Molec. Pharm, 52:69-74 (1997); and Biochemistry, 35:14436-14444 (1996). Antibodies used for detecting the proteins were obtained commercially as follows: p53 from Santa Cruz Biotechnology, Inc. (Santa Cruz, Calif.); PCNA and Cyclin D1 from Oncogene Research Products (Cambridge, Mass.); Rb and p21 from PharMigen (San Diego, Calif.); p27 from Transduction labs (Lexington, Ky.) and β-actin (used to correct for variations in loading) from Sigma Chemical Co. (St. Louis, Mo.). Western blot analysis of each of these proteins was performed at least three times.

[8] = test system: SK-MEL-28 human melanoma cells; assay: Cell growth / apoptotic response of SK-MEL-28 cells (Coulter Counter, growth kinetics); type: cell-based; conditions: SK-MEL-28 (mt-p53), 10 μM, 48 hours
[9] = SK-MEL-28 cells, 24 hours, Table 4
[10] = MALME-3M (wt-p53), Table 2 (24 hours treatment)
[11] = SK-MEL-28 (mt-p53), Table 2, 24 hours

CCNCCCNCCCNCCCNCC [DENSPM, N^1,N^11-diethylnorspermine]
% Growth Control ([1]; SK-MEL-28 (mt-p53), 10 μM, Table 2, 24 hours): 26% | % Control Growth [1, 9]: 30% | cell growth and/or apoptosis response ([1]; SK-MEL-28 cells, growth kinetic analysis): massive and rapid apoptotic response; also recorded: rapid cytotoxic response | % Total Cells at 48 hours, G1 ([2]; MALME-3M (wt-p53), asynchronous, 10 μM, 48 hours): 88% | cell cycle distribution of serum synchronized cells ([2]; MALME-3M synchronized in G0/G1, released with serum plus 10 μM, up to 96 hours): accumulated in the G1 and G2/M phases of the cycle but not in S phase | onset of G1 arrest after treatment ([2]; MALME-3M, asynchronous, 10 μM): about 16 hours | % Total Cells, G1 [3]: 74** % | % Total Cells, G2/M [3]: 9** % | % Total Cells, S [3]: 17** % | ODC activity [4, 10]: 30 pmol/hr/mg protein | ODC activity [4, 11]: 5 pmol/hr/mg protein | Enzyme Activities, ODC [4, 9]: 37 pmol/hr/mg protein | SAMDC activity [5, 10]: 40 pmol/hr/mg protein | SAMDC activity [5, 11]: 25 pmol/hr/mg protein | Polyamine Pools, Put [6]: 205 pmol/10^6 cells | Polyamine Pools, Spd [6]: 60 pmol/10^6 cells | Polyamine Pools, Spm [6]: 285 pmol/10^6 cells | appearance of the hypophosphorylated Rb (pRb) protein band [7]: about 16 hours | start of increase in p21 [7]: about 12 hours | start of increase in wild type p53 [7]: about 12 hours | time of p21 maximum [7]: 30 h | time of p53 maximum [7]: 30 h | protein levels of PCNA ([7]; 0 to 48 hours): unaffected | p21 protein increase relative to zero treatment time (densitometry, normalized to β-actin) ([7]; 30 hour peak): 5 fold | p53 protein increase relative to zero treatment time (densitometry, normalized to β-actin) ([7]; 30 hour peak): 10 fold | levels of p130, cyclin D1 and cyclin E ([7]; 48 hour time course (data not shown)): relatively constant | Rb phosphorylation state by 48 hours ([7]; 48 hours): pRb was the only species | p27 maximum induction ([7]; at 24 to 30 hours): about 1.5 fold | % Control Growth [8]: 0%
